This is an account of results in patent publication US20240327882A1, “Methods and Compositions for Increasing Bio-products in Cyanobacteria using Low-Dose Antibiotics” (priority 2023, published 2024).

Series [1] concerns F. diplosiphon B481-SD cultures. Put plainly: GC×GC/TOF-MS analysis of transesterified lipids (FAMEs). In kind it is cell-based, Fremyella diplosiphon. The note with it: 0.8 mg/L. As for the experimental part:
(§1) Total lipids were extracted and GC×GC/TOF-MS analysis of transesterified lipids in F. diplosiphon treated with optimal ampicillin were performed. B481-SD cultures were grown under optimal conditions and harvested on day 15. Total lipids were extracted using the chloroform: methanol method described by Folch et al. (1957). Briefly, cultures were pelleted and lyophilized, and 15 mL methanol/chloroform (2:1, v/v) solvent was added to 100 mg dry weight of cells. The mixture was homogenized, incubated on ice, and centrifuged at 3000 rpm for 10 min to collect the organic phase. The biomass residue was re-extracted thrice with 4 mL of methanol and 2 mL of chloroform. The lower organic phase was dried in a rotary evaporator (Heidolph, IL, USA), and the total lipid content was estimated by gravimetry.
Simultaneous extraction and transesterification of F. diplosiphon lipids were performed according to the method described by Wahlen et al. (2011). […] The reaction was quenched with 4 ml chloroform, washed in distilled water, and centrifuged at 2000 rpm for phase separation. The chloroform phase containing FAMEs and lipids was transferred to a new flask, and the remaining biomass was washed twice with 2 mL chloroform and mixed. The extracted FAMEs were subjected to high-resolution two-dimensional gas chromatography-time of flight mass spectrometry (GC×GC/TOF-MS) as described by Tabatabai et al. (2018).

Series [2] concerns F. diplosiphon strain B481-WT. The format is cell-based, Fremyella diplosiphon. As to the method: (§2) The flasks were placed in an incubator at 37° C. in the dark for 24 h prior to lactate dehydrogenase (“LDH”) measurement. On day 6, 50 μl cultures were transferred to a 96 well clear polystyrene microplate (Corning, Inc., NY), and fluorescence Epi-RGB mode was used to macro-evaluation of antibiotic-treated both strains (Amersham Imager 680, GE Healthcare Bio-Sciences AB, Uppsala, Sweden). Next, 50 μL of the reaction mixture (LDH Cytotoxicity Assay Kit, Thermo Fisher Scientific, United States) was added. After incubation for 30 min. at room temperature in the dark, 50 μL of stock solution was added and mixed gently (Wejnerowski et al., 2018). Absorbance was measured at 490 nm using a microplate reader (BioTek Synergy H1 Microplate Reader, Agilent, United States) after 2 h incubation in the dark at room temperature. The calculated average of the control included cells without antibiotics or nVZI treatment was accepted as healthy cells and results were determined by subtracting LDH activity of the control from treated cells. Microscopic observations of antibiotic-related membrane and cyanobacterial structure alterations were made using a Cytation 5 Cell Imaging Multi-Mode reader (BioTek® Instruments, Inc., Winooski, United States).

The test system of series [3] is F. diplosiphon strain B481-SD. Kind of series: phycocyanin and chlorophyll α autofluorescence, strain B481-SD. In kind it is cell-based, Fremyella diplosiphon. The note with it: for concentrations with significant increase in pigment (phycocyanin and chlorophyll α) autofluorescence / concentrations with significant decrease in pigment (phycocyanin and chlorophyll α) autofluorescence: vs untreated control. As for the experimental part: (§3) F. diplosiphon strains, B481-WT obtained from the UTEX algae repository (Austin, TX, United States), and B481-SD (overexpressed strain with the sterol desaturase gene; accession MH329183) were used in this study. Cultures were grown in liquid BG-11/HEPES medium under wide-spectrum red light (650 nm) with continuous shaking at 170 rpm at 28° C. in an Innova 44R shaker (Eppendorf, Hamburg, Germany) for 6 days. Light fluorescence rate was adjusted to 30 μmol m^−2 s^−1 using the model LI-190SA quantum sensor (Li-Cor, United States). These conditions were kept constant during the study.
(§4) Three classes of antibiotics: β-lactams (ampicillin), aminoglycosides (kanamycin), and tetracycline, were tested in this study. Antibiotic stock solutions (25×-100×) were prepared according to the manufacturer's instructions and stored at −20° C. […] Each antibiotic concentration was mixed with 5 ml F. diplosiphon cells adjusted to OD750 nm and 200 μl of each dilution added.
(§5) Cells grown in the absence of antibiotics or nZVIs served as control. In order to minimize the effects of light scattering, every other well was left blank. Plates were sealed with a Breathe-Easy sealing membrane (Sigma-Aldrich, MO, Lot #MKCP8263) to prevent evaporative water loss and decrease the risk of contamination.
(§6) Phycocyanin and chlorophyll α fluorescence in antibiotic-treated and control F. diplosiphon B481-WT and B481-SD were recorded every other day (48 hour intervals) using a microplate reader (BioTek Synergy H1 Microplate Reader, Agilent, USA). While chlorophyll α fluorescence was recorded at an excitation of 420 nm and emission of 680 nm, phycocyanin was measured at excitations of 590 nm, and emissions of 650 nm, see FIGS. 5-20. Maximum PSII quantum yield (Fv/Fo) of treated and controlled F. diplosiphon strains was likewise measured using MINI-PAM (Walz, Effeltrich, Germany) every 48 h for 6 days after incubating in dark for 15 min. The (Fv/Fo) was calculated using the equation

The test system of series [4] is F. diplosiphon strain B481-WT. Put plainly: phycocyanin and chlorophyll α autofluorescence, strain B481-WT. In kind it is cell-based, Fremyella diplosiphon. The note with it: for concentrations with significant decrease in pigment (phycocyanin and chlorophyll α) autofluorescence / concentrations with enhanced pigment accumulation: vs untreated control. As for the experimental part: as §3, §4, §5, §6

Series [5] concerns F. diplosiphon strain B481-WT. Kind of series: lactate dehydrogenase (LDH) activity / membrane permeability, strain B481-WT. The format is cell-based, Fremyella diplosiphon. As for the experimental part: The assay quantitatively measures released extracellular LDH activity in culture media by enzymatic reaction.
as §3
Three classes of antibiotics: β-lactams (ampicillin), aminoglycosides (kanamycin), and tetracycline, were tested in this study. Antibiotic stock solutions (25×-100×) were prepared according to the manufacturer's instructions and stored at −20° C. […] Each antibiotic concentration was mixed with 5 ml F. diplosiphon cells adjusted to OD750 nm and 200 μl of each dilution added. […]
The flasks were placed in an incubator at 37° C. in the dark for 24 h prior to lactate dehydrogenase (“LDH”) measurement. On day 6, 50 μl cultures were transferred to a 96 well clear polystyrene microplate (Corning, Inc., NY), and fluorescence Epi-RGB mode was used to macro-evaluation of antibiotic-treated both strains (Amersham Imager 680, GE Healthcare Bio-Sciences AB, Uppsala, Sweden). […] Absorbance was measured at 490 nm using a microplate reader (BioTek Synergy H1 Microplate Reader, Agilent, United States) after 2 h incubation in the dark at room temperature. The calculated average of the control included cells without antibiotics or nVZI treatment was accepted as healthy cells and results were determined by subtracting LDH activity of the control from treated cells. Microscopic observations of antibiotic-related membrane and cyanobacterial structure alterations were made using a Cytation 5 Cell Imaging Multi-Mode reader (BioTek® Instruments, Inc., Winooski, United States).

The subject of series [6] is F. diplosiphon strain B481-SD. Kind of series: maximum PSII quantum yield (Fv/Fo), strain B481-SD. In kind it is cell-based, Fremyella diplosiphon. As for the experimental part: as §6
In series [7] the test system is F. diplosiphon B481-SD cultures. Kind of series: total lipid content by gravimetry. The format is cell-based, Fremyella diplosiphon. The settings on record: 0.8 mg/L; not statistically different (p>0.05). As for the experimental part:
as §1

The test system of series [8] is F. diplosiphon strain B481-WT. Put plainly: maximum PSII quantum yield (Fv/Fo), strain B481-WT. The format is cell-based, Fremyella diplosiphon. As for the experimental part: as §6
Series [9] concerns Microcystis aeruginosa. The note with it: cited from earlier work.
Series [10] has as its system F. diplosiphon. The note with it: day 6; strain not stated.
The test system of series [11] is F. diplosiphon strain B481-SD. The format is cell-based, Fremyella diplosiphon. As for the experimental part:
as §2

For series [12], the system named is F. diplosiphon strain B481-SD. Kind of series: lactate dehydrogenase (LDH) activity / membrane permeability, strain B481-SD. In kind it is cell-based, Fremyella diplosiphon.

Where “and” joins values, the source holds several entries; their conditions need not be identical. Equal values may be shown once. Entries after “also recorded” stand apart in the source; their conditions may differ.

On to `CC1(C)S[C@@H]2[C@H](NC(=O)[C@H](N)c3ccccc3)C(=O)N2[C@H]1C(=O)O` [ampicillin], for which, in series [1], the “monounsaturated fatty acids compared to the control” value was “Enhanced amounts”, the “polyunsaturated fatty acids compared to the control” value is “Enhanced amounts” and the “saturated fatty acids (SFAs) compared to the control” value was “augmentation; also recorded: Enhanced amounts”. Also, in series [1] (p<0.05), the “methyl ester of hexadecanoic acid (C16: 0) level vs untreated control” value was “significantly higher”, the “methyl octadecadienoate (C18: 2) level vs untreated control” value is recorded as “significantly higher”, the “methyloctadecenoate (C18: 1) level vs untreated control” value is “significantly higher” and the “ç-Linolenic acid (C18: 3) level vs untreated control” value is recorded as “significantly higher”. The “concentration above which filament fragmentation and alteration of cell shape were observed” value in series [2] was “higher than 25.6 mg/L”. Besides, the “concentrations with significant increase in pigment (phycocyanin and chlorophyll α) autofluorescence” value in [3] is 0.2 to 25.6 mg/L and 0.2 to 51.2 mg/L. Further, in [4], the “concentrations with significant decrease in pigment (phycocyanin and chlorophyll α) autofluorescence” value (“concentrations with significant decrease” below) is given as 3.2 to 102.5 mg/L. In addition, the “concentration of maximum LDH activity” value in series [5] was 0.4 mg/L. In addition, the “concentrations with significant increase in Fv/Fo” value in [6] (day 4, vs control) fell in the range of 0.2 to 3.2 mg/L. The “total lipid content compared to the control” value in series [7] was “slight increase”.
Regarding `CO/N=C(\C(=O)N[C@@H]1C(=O)N2C(C(=O)O)=C(COC(C)=O)CS[C@H]12)c1csc(N)n1` [cefotaxime], the “concentrations with significant decrease” value in series [3] is listed as 0.8 to 102.5 mg/L. Besides, the “concentration above which there is no recovery of Fv/Fo” value was over 0.05 mg/L in series [8] and “higher than 1.6 mg/L” in series [6].
With `CC[C@H]1OC(=O)[C@H](C)[C@@H](O[C@H]2C[C@@](C)(OC)[C@@H](O)[C@H](C)O2)[C@H](C)[C@@H](O[C@@H]2O[C@H](C)C[C@H](N(C)C)[C@H]2O)[C@](C)(O)C[C@@H](C)C(=O)[C@H](C)[C@@H](O)[C@]1(C)O` [erythromycin], the “low dosages reported to trigger photosynthetic activity” value in series [9] is listed as under 20 mg/L.
With `NC[C@H]1O[C@H](O[C@H]2[C@H](O)[C@@H](O[C@H]3O[C@H](CO)[C@@H](O)[C@H](N)[C@H]3O)[C@H](N)C[C@@H]2N)[C@H](O)[C@@H](O)[C@@H]1O` [kanamycin], in series [10], the “concentration of maximal LDH activity (membrane permeability)” value is 0.8 mg/L. The “concentration above which filament fragmentation and alteration of cell shape were observed” value in [2] and in [11] was over 51.2 µg/mL throughout. The “concentrations with significant decrease” value in series [3] and in series [4] was 6.4 to 102.5 mg/L throughout. Moreover, the “concentrations with significant increase in pigment (phycocyanin and chlorophyll α) autofluorescence” value in series [3] was 0.2 to 3.2 mg/L. Besides, the “concentrations with enhanced pigment accumulation” value in series [4] lay in the range of 0.2 to 3.2 mg/L. For the same molecule, the “concentrations with decrease in Fv/Fo ratio” value in [8] (exposure for 6 days) lay in the range of 1.6 to 102.5 mg/L. Also, the “concentrations with significant increase in Fv/Fo” value in series [8] (vs control group) is given as 0.2 to 1.6 mg/L. In addition, the “concentration of maximum LDH activity” value in series [5] is 0.4 mg/L; in series [12] it was 0.8 mg/L.
On to `CN(C)[C@@H]1C(O)=C(C(N)=O)C(=O)[C@@]2(O)C(O)=C3C(=O)c4c(O)cccc4[C@@](C)(O)[C@H]3C[C@@H]12` [tetracycline], for which the “concentration of maximal LDH activity (membrane permeability)” value in series [10] worked out at 0.8 mg/L. The “concentrations with significant increase in pigment autofluorescence” value in [3] (day 6) and in [4] (day 6) was 0.8 to 12.8 mg/L each time. Further, the “concentrations with significant decrease” value is reported as 102.5 to 410 mg/L in [3] and 25.6 to 410 mg/L in [4]. Also, the “concentrations with significant increase in pigment (phycocyanin and chlorophyll α) autofluorescence” value in series [3] lay within 0.8 to 12.8 mg/L. Further, the “concentrations with enhanced pigment accumulation” value in [4] fell in the range of 0.8 to 12.8 mg/L. Further, the results for the “concentration of maximum LDH activity” value in series [5] and in series [12] were 0.4 mg/L and 0.8 mg/L, respectively. Also, the “concentrations with decrease in Fv/Fo ratio” value in series [6] (exposure for 6 days) was “higher than 102.5 mg/L”.
